# Test results taken from paper PMC10539439 (Pharmacological Reports, 2023).
# Values joined by “and” are separate entries in the source; they are usually repeats but may differ in a detail not shown here. Equal values may be shown once. Read-outs that look alike come from different tables or passages of the source.
# Tests used:
# [1] = target: α1-adrenoceptor; test: Competitive radioligand-binding assay, [3H]prazosin; parameters: species or system rat
# Procedure: (§1) 10 mM stock solutions of test compounds were prepared in DMSO. Serial dilutions of compounds were prepared in 96-well microplate in assay buffers using an automated pipetting system epMotion 5070 (Eppendorf, Poland). Each compound was tested in 6 concentrations of 1.0E-05 to 1.0E-10 M (final concentration).
# (§2) Affinity towards α1- and α2-adrenoceptors was evaluated using the competitive radioligand-binding assay. Experiments were conducted in the rat cerebral cortex. Radioligand [3H]prazosin (84,2 Ci/mmol, α1-adrenoceptor, PerkinElmer, Poland, NET823001MC) and [3H]clonidine (70.5 Ci/mmol, α2-adrenoceptor, PerkinElmer, Poland, NET613250UC) were used. The membrane preparation and the assay procedure were carried out accordingly as previously published. Radioactivity was counted on the MicroBeta2 scintillation counter (PerkinElmer, Poland). Data were fitted to a one-site curve-fitting equation with Prism 8 (GraphPad Software, USA), and Ki values were estimated from the Cheng–Prusoff equation.
# [2] = target: T1, α2-adrenoceptor (Rattus norvegicus, UniProt P22909); test: Competitive radioligand-binding assay, [3H]clonidine; conditions: ADRA2, experiments 1-3, duplicates
# T1 sequence (P22909 1-465): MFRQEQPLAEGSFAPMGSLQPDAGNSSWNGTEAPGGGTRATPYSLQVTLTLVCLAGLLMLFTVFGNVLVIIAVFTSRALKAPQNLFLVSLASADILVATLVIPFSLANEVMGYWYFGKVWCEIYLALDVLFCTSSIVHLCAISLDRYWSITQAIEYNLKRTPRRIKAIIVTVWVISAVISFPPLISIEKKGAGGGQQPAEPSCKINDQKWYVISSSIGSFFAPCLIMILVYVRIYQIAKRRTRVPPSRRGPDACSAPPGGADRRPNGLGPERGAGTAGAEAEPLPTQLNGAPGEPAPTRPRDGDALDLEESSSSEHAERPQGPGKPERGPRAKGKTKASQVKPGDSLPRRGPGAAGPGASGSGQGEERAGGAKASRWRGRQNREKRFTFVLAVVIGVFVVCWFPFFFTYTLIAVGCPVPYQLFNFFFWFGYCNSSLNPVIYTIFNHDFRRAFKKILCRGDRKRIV
# Procedure: as §1, §2
SMILES,"Ki ([1]; ADRA1, experiment 1, 2, 3, read-out: Ki, single experiments)","Ki ([1]; [3H] prazosin, rat cerebral cortex, mean ± SEM, n = 3, read-out: Ki) [nM]",CPM ([2]; log of molar concentration -5),CPM ([2]; log of molar concentration -6),CPM ([2]; log of molar concentration -7),CPM ([2]; log of molar concentration -8),CPM ([2]; log of molar concentration -9),CPM ([2]; log of molar concentration -10)
Cc1ccc(N(CC2=NCCN2)c2cccc(O)c2)cc1 [Phentolamine],14.9 nM and 9.23 nM and 10.1 nM,11.3 ± 1.7,,,,,,
CNC[C@H](O)c1cccc(O)c1 [Phenylephrine],,,141 CPM and 116 CPM and 96 CPM and 109 CPM and 123 CPM and 92 CPM,126 CPM and 136 CPM and 132 CPM and 152 CPM and 190 CPM and 224 CPM,392 CPM and 260 CPM and 300 CPM and 297 CPM and 293 CPM,433 CPM and 441 CPM and 410 CPM and 390 CPM and 339 CPM and 367 CPM,380 CPM and 398 CPM and 394 CPM and 410 CPM and 367 CPM and 391 CPM,502 CPM and 429 CPM and 290 CPM and 400 CPM and 415 CPM and 423 CPM
